Here are results for one compound from article PMC7486443, “Generation of Phenothiazine with Potent Anti-TLK1 Activity for Prostate Cancer Therapy” (iScience, 2020).

Among the targets are CSF1R (Homo sapiens, UniProt P07333); DYRK2 (Homo sapiens, UniProt Q92630); EPHA2 (Homo sapiens, UniProt P29317); EPHA5 (Homo sapiens, UniProt P54756); NEK2 (Homo sapiens, UniProt P51955); NEK3 (Homo sapiens, UniProt P51956); PAK1 (Homo sapiens, UniProt Q13153); PIP5K1C (Homo sapiens, UniProt O60331); PKMYT1 (Homo sapiens, UniProt Q99640); PLK4 (Homo sapiens, UniProt O00444); ROCK2 (Homo sapiens, UniProt O75116); SRPK2 (Homo sapiens, UniProt P78362); TIE1 (Homo sapiens, UniProt P35590); ZAP70 (Homo sapiens, UniProt P43403).

What all share (assay): biochemical
Set-up in all cases: DiscoverX KINOMEscan scanMAX competition binding panel, single concentration, percent of control; remaining binding: dose or concentration left out as unconfirmed
Holding throughout (conditions): KINOMEscan binding, percent of control; read-out: Table S4_SCANMAX REPORT - related to Fig. 1 / Percent Control

The next assay addresses T1, ERK5 (Homo sapiens, UniProt Q13164).
T1 construct: gene MAPK7

A further assay addresses T2, MRCKB (Homo sapiens, UniProt Q9Y5S2).
T2 construct: gene CDC42BPB

A further assay has as its target T3, PCTK2 (Homo sapiens, UniProt Q00537).
T3 construct: gene CDK17

A further assay addresses T4, PFTAIRE2 (Homo sapiens, UniProt Q96Q40).
T4 construct: gene CDK15

The next assay addresses T5, YANK1 (Homo sapiens, UniProt Q8WU08).
T5 construct: gene STK32A

Chain of PAK1 (Q13153 whole entry): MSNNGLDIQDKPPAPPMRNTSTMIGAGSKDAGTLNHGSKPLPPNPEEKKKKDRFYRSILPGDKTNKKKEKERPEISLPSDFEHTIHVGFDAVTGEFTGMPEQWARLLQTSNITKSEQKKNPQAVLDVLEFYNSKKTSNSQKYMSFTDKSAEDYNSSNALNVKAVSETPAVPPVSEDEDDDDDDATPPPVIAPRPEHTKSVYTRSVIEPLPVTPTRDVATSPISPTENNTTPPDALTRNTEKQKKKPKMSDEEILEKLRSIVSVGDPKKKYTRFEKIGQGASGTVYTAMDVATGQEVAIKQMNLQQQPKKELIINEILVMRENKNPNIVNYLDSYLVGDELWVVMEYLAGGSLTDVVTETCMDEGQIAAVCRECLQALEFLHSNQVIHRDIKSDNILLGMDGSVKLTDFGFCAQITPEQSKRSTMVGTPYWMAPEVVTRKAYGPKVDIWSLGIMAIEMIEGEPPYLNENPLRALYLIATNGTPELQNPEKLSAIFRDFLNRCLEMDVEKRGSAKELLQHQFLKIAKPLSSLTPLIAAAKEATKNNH
T5 sequence (Q8WU08 whole entry): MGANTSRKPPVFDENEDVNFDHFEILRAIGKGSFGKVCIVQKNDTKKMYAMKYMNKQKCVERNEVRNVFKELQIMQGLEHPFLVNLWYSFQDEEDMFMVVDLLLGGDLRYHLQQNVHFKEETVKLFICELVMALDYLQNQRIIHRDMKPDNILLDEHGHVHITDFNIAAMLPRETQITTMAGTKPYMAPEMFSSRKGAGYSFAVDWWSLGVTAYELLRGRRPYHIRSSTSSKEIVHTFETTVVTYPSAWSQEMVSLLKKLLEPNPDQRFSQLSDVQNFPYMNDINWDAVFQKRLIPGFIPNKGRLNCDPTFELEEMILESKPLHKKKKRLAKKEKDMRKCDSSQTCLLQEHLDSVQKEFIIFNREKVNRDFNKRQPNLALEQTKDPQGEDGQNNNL
Chain of NEK2 (P51955 whole entry): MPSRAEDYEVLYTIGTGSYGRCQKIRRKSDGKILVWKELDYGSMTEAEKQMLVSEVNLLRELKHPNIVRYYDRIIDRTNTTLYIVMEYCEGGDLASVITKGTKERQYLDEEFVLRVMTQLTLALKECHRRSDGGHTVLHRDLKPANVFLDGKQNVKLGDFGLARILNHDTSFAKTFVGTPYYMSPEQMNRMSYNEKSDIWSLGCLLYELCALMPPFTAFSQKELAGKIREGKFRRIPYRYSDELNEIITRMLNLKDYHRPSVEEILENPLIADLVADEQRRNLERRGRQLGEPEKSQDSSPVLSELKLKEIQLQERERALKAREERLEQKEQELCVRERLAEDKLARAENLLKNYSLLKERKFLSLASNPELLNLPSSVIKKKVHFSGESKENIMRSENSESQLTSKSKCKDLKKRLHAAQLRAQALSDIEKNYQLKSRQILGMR
Chain of DYRK2 (Q92630 whole entry): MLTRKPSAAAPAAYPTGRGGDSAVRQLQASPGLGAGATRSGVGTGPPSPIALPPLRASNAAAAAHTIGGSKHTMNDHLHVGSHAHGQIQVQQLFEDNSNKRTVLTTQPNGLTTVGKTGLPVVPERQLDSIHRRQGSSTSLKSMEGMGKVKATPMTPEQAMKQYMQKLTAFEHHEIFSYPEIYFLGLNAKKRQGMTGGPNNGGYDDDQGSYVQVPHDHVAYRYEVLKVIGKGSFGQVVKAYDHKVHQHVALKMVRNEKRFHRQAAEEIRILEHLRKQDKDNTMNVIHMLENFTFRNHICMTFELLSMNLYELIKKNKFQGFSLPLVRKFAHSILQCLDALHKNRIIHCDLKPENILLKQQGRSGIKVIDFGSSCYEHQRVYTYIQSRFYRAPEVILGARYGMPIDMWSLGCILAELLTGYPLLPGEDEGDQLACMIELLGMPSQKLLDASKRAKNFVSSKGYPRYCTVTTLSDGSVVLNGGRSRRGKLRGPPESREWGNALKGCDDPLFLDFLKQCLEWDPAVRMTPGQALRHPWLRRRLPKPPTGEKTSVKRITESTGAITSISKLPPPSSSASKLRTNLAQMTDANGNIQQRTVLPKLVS
Chain of CSF1R (P07333 whole entry): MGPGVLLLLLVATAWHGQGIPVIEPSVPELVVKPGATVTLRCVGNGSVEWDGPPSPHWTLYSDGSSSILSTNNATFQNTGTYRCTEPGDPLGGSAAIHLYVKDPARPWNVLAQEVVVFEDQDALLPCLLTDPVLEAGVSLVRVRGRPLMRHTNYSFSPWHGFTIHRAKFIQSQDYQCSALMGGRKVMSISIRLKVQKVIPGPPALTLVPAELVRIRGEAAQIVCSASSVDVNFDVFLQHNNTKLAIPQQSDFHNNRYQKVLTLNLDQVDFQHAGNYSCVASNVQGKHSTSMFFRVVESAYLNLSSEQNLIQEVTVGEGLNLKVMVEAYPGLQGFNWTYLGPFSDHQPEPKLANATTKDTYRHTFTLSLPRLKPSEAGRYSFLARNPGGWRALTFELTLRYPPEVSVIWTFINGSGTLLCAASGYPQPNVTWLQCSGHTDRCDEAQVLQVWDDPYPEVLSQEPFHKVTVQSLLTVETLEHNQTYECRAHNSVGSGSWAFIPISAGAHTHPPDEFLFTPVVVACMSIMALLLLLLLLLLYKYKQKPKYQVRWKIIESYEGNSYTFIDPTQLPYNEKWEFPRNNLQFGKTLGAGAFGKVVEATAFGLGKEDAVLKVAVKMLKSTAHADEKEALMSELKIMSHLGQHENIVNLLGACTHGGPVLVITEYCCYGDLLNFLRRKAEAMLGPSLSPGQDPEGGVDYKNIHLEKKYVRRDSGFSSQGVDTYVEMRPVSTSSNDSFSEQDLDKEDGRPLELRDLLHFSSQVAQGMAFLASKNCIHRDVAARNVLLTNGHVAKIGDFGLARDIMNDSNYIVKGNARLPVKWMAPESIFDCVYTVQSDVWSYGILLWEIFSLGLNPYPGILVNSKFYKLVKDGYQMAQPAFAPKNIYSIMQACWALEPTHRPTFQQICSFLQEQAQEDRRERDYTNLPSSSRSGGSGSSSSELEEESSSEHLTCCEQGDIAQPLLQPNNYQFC
Chain of EPHA5 (P54756 whole entry): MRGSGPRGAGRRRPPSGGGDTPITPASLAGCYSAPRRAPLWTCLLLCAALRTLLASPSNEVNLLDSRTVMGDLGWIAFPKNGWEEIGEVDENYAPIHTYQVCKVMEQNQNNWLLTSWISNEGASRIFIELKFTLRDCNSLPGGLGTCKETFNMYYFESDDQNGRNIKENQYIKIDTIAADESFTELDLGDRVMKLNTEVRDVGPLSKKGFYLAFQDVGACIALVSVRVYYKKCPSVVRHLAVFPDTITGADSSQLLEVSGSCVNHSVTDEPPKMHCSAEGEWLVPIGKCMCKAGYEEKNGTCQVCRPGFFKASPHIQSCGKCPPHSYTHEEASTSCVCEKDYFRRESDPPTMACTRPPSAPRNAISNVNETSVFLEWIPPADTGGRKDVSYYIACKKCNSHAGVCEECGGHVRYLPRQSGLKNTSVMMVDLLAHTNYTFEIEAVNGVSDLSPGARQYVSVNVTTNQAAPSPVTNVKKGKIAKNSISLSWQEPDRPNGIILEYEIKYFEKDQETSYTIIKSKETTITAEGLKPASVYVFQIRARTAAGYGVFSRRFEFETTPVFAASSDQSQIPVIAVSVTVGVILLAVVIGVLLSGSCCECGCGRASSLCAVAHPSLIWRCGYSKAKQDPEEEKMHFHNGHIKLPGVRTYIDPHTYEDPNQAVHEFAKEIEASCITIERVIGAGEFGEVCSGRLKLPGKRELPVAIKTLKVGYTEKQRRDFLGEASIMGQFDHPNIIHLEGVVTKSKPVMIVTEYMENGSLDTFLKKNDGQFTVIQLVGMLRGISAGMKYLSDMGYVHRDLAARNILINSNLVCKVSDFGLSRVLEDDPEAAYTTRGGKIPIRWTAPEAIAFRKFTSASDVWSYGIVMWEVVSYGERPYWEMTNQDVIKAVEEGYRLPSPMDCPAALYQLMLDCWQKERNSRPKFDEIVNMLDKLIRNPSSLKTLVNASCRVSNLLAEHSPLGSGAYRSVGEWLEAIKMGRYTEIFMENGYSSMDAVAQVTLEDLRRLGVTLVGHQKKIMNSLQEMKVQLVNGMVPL
T3 sequence (Q00537 whole entry): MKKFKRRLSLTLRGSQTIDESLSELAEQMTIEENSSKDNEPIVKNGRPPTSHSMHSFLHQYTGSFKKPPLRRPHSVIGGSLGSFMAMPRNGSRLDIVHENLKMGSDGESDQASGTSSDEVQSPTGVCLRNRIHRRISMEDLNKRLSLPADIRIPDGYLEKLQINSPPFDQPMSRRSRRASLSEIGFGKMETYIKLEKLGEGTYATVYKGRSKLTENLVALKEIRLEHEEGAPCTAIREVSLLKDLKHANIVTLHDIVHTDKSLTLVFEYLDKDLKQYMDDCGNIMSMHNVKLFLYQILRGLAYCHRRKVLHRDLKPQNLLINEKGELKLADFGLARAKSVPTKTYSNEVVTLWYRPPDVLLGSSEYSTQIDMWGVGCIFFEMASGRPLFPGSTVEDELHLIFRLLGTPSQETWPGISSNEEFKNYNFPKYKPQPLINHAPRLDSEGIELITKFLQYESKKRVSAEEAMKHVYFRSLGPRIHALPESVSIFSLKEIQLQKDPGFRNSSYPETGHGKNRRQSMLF
Chain of NEK3 (P51956 whole entry): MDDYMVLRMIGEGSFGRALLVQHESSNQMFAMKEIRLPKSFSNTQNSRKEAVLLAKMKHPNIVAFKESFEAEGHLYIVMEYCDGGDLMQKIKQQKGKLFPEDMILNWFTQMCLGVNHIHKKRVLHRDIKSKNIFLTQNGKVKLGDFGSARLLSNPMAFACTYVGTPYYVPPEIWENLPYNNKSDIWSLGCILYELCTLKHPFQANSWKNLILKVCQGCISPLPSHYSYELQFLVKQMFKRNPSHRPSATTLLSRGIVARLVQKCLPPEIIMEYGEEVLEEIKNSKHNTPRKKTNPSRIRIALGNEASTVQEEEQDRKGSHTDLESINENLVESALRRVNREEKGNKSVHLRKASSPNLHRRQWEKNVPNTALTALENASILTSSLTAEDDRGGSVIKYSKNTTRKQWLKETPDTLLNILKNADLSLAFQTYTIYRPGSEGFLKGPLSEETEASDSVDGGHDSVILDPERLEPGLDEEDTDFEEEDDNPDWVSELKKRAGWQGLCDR

On to `c1ccc2c(c1)Sc1ccccc1N2CCN1CCOCC1` [J54], for which the remaining binding at CSF1R was found to be 100%; on DYRK2 it was 83%; at EPHA2, 100%; at EPHA5 it was 100%; at ERK5, 100%; at MRCKB, 95%. For the same compound, the remaining binding on NEK2 came out at 100%; at NEK3, 75%; at PAK1 it was 93%; at PCTK2, 100%; on PFTAIRE2 it was 100%; at PIP5K1C it was 100%. The remaining binding turned out to be 100% on PKMYT1; 85% on PLK4; 98% on ROCK2; 100% on SRPK2; 98% on TIE1; 91% on YANK1. Moreover, the remaining binding at ZAP70 was 100%.
